Publication PMC3954873, “Enhanced Thermal Stability and Hydrolytic Ability of Bacillus subtilis Aminopeptidase by Removing the Thermal Sensitive Domain in the Non-Catalytic Region” (PLoS ONE, 2014)

Key:
[1] = biological target: T1, BSAP-ΔPA (Bacillus subtilis, UniProt P25152, DEL101-225, form not given); assay: steady-state hydrolysis kinetics, non-linear regression; assay type: biochemical; settings: free enzyme; assay as in previous study, conditions not printed here
T1 construct: gene ywaD; protease-associated domain (101-225) deleted by inverse PCR; 330 residues before signal peptide removal; plasmid PMA5, host B. subtilis WB600; purified from culture supernatant
T1 sequence (P25152 other isoform, or with tags, fused parts or gaps DEL101-225): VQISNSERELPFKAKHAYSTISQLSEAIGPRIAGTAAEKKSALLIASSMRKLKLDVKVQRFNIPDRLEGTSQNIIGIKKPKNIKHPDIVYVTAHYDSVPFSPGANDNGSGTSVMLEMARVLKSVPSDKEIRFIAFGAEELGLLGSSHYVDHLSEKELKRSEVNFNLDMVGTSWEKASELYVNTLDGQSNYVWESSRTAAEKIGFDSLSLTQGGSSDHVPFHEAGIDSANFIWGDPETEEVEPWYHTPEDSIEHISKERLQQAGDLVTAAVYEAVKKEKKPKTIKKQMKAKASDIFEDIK
Excerpt: steady-state hydrolysis kinetics, non-linear regression on BSAP-ΔPA

[2] = biological target: T2, BSAP (Bacillus subtilis, UniProt P25152); assay: as above; assay type: biochemical; settings: free enzyme; assay as in previous study, conditions not printed here
T2 construct: gene ywaD; host B. subtilis WB600; purified as in previous study
T2 sequence (P25152 32-455): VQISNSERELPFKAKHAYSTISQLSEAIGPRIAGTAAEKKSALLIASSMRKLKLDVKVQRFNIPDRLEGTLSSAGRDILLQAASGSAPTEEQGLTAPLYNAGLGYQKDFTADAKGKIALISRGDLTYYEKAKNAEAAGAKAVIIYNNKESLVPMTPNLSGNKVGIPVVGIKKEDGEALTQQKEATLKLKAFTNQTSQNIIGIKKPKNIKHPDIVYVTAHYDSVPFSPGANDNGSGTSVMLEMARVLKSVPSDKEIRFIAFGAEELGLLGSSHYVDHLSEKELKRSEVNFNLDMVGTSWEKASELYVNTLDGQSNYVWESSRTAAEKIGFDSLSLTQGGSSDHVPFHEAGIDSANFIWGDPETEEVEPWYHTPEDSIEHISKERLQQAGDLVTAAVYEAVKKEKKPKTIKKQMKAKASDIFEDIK
Excerpt: steady-state hydrolysis kinetics, non-linear regression on BSAP

- K m [1]: 2.43 ± 0.23 mmol
- K m [2]: 2.52 ± 0.11 mmol
SMILES: CC(C)C[C@H](N)C(=O)Nc1ccc([N+](=O)[O-])cc1 [Leu-pNA]
